US9168306B2, “Drug delivery agents comprising cyclodextrin covalently linked to a gemini surfactant, and pharmaceutical compositions comprising the same” (University of Saskatchewan, priority 2011, dated 2015)
Values joined by “and” are separate entries in the source; they are usually repeats but may differ in a detail not shown here. Equal values may be shown once.

Tests used:
[1] = Size and ζ-potential measurement of compositions (Zetasizer Nano ZS); type: physicochemical
Method: Due to their low solubility in water, for the in vitro testing, each drug was dissolved in dimethylsulfoxide (DMSO, Sigma) at 2 mM concentration. The drug was added at increasing concentrations of 0.01-200 μM to the supplemented media with the final DMSO concentration of 2% exposed to the cells. For the formulations, CD or CDgemini was dissolved in water (10 mM) and the drugs were dissolved in methanol (2 mM). The delivery agent to drug mole ratio was maintained at 2:1. The solvent mixture was evaporated in a rotary evaporator under vacuum and the residue was reconstituted in water. Samples were dispersed by sonication for 2 h and stored overnight at 4° C. Samples were re-sonicated, prior to diluting in supplemented media, for 15 min.
Compositions were prepared as described above. The size and ζ-potential of the particles were measured with a Zetasizer Nano ZS instrument (Malvern Instruments, UK). Results are reported as the mean of 3-5 measurements±standard deviations.

[2] = system: A375 cells; test: Flow cytometry apoptosis assay (Annexin V-FITC / propidium iodide); type: cell-based, human; settings: delivery agent alone as control, 14 μM; 48 h
Method: A375 cells at the second passage were seeded at a density of 1×10^6 cells per well in 6 well tissue culture-treated plates. Cells were incubated at 37° C. in a humidified incubator with 5% CO2 and 95% air, overnight. […] The resveratrol and sodium butyrate controls were used to calibrate the flow cytometer for cell cycle arrest in the A375 cell. All treatments were performed in triplicate wells. Cells were incubated with the formulations and controls for 48 h. All cells, floating and adherent, were collected, the triplicate wells pooled and washed in PBS. The cell populations were divided into two. Half of the cells was fixed in 70% ethanol for 2 h, washed twice in 300 μg/mL RNase A (Qiagen) in PBS. The cell pellet was resuspended in PBS and stained with propidium iodide, 20 μg/mL (Sigma). […]
(§1) Flow cytometry was performed with a FacsCalibur instrument (BD Biosciences). The treatment groups were analyzed using ModFit LT flow cytometry modeling software (Verity Software House, Inc) after gating the area of non-treated cells by excluding aggregates and debris.
The type of cell death of the A375 cells after treatment of the compositions was captured by performing the apoptosis assay (as shown in FIG. 7). […] Apoptosis was measured by dual staining of the cells with Annexin V-FITC and propidium iodide. […]

[3] = system: A375 cells; test: Flow cytometry cell cycle analysis (propidium iodide); type: cell-based, human; settings: delivery agent alone as control, 14 μM; 48 h
Method: A375 cells at the second passage were seeded at a density of 1×10^6 cells per well in 6 well tissue culture-treated plates. Cells were incubated at 37° C. in a humidified incubator with 5% CO2 and 95% air, overnight. […] The resveratrol and sodium butyrate controls were used to calibrate the flow cytometer for cell cycle arrest in the A375 cell. All treatments were performed in triplicate wells. Cells were incubated with the formulations and controls for 48 h. All cells, floating and adherent, were collected, the triplicate wells pooled and washed in PBS. The cell populations were divided into two. Half of the cells was fixed in 70% ethanol for 2 h, washed twice in 300 μg/mL RNase A (Qiagen) in PBS. The cell pellet was resuspended in PBS and stained with propidium iodide, 20 μg/mL (Sigma). The other half of the cells was suspended in binding buffer and stained as per the Annexin V-FITC Apoptosis Detection Kit (BioVision) protocol.
as §1

[4] = Transmission electron microscopy of compositions; type: physicochemical
Method: Drug/CDgemini conjugates prepared for the size measurements were used for TEM. Aliquots of 10 μL samples were dropped onto 300-mesh formvar-coated copper grids (SPI Supplies) and incubated for 5 min at room temperature. The water was wicked off the grids with absorbent tissue and the grids were stained with 1% phosphotungstic acid for 2 min. The stain was removed and the grids were dried at room temperature for 15 min. The samples were examined with a Philips CM10 electron microscope at an accelerating voltage of 80 kV.

[5] = system: a number of cancer cells, including human SK-MEL-5 cells; settings: literature values; cited from earlier work

CCCCCCCCCCCC[N+](C)(C)CCCN(CCC[N+](C)(C)CCCCCCCCCCCC)C(=O)CCC(=O)OCC1OC2OC3C(CO)OC(OC4C(CO)OC(OC5C(CO)OC(OC6C(CO)OC(OC7C(CO)OC(OC8C(CO)OC(OC1C(O)C2O)C(O)C8O)C(O)C7O)C(O)C6O)C(O)C5O)C(O)C4O)C(O)C3O.[Cl-].[Cl-] (stereo not drawn) [CDgemini, [mono-6-o-(3{bis(3-(N-dodecyl-N,N-dimethylamino)-propyl)-carbamoyl}propanoyl)-beta-cyclodextrin]^2+]
Particle size Peak 1 Intensity [1]: 100%
ζ potential [1]: 5.74±0.53 mV and 5.7 ± 0.5 mV
Particle size Peak 1 ([1]; mean of 3-5 measurements ± SD): 153.6±4.3 nm
PDI ([1]; polydispersity index): 0.2
apoptosis, of the total population [2]: 31%
cells in G0/G1 [3]: 65%
cells in S-phase [3]: 35%
size of particles in TEM images [4]: 100-150 nm

N[C@@H](Cc1ccc(N(CCCl)CCCl)cc1)C(=O)O [melphalan]
cytotoxic concentrations [5]: 52 to 219 µM

OC[C@H]1O[C@@H]2O[C@H]3[C@H](O)[C@@H](O)[C@@H](O[C@H]4[C@H](O)[C@@H](O)[C@@H](O[C@H]5[C@H](O)[C@@H](O)[C@@H](O[C@H]6[C@H](O)[C@@H](O)[C@@H](O[C@H]7[C@H](O)[C@@H](O)[C@@H](O[C@H]8[C@H](O)[C@@H](O)[C@@H](O[C@H]1[C@H](O)[C@H]2O)O[C@@H]8CO)O[C@@H]7CO)O[C@@H]6CO)O[C@@H]5CO)O[C@@H]4CO)O[C@@H]3CO [CD, β-Cyclodextrin, reference compound]
formation of supramolecular aggregates [1]: neither CD nor drug/CD conjugates formed supramolecular aggregates
apoptosis, of the total population [2]: 25%
cells in G0/G1 [3]: 56%
cells in S-phase [3]: 43%
